Experiments:
[1] = test system: phosphorylation of STAT1 and STAT3; test: Western blot of STAT1/STAT3 phosphorylation in activated CD4 T cells; assay type: cell-based, human; conditions: 1 μM; CD4 T cells activated 48 hrs with IL-1β, TGF-β
Method: FIG. 8. […] FIG. 8A. CD4 T cells were activated for 48 hrs in the presence of IL-1β, TGF-β and 1 μM of the Example 2 compound. Western blotting analysis was used to determine the activation status of Stat3, Stat1 and pS6K (as a marker of mTORC1 activity) and the expression of GLUT1 protein. FIG. 8B. CD4 T cells were activated for 48 hrs and treated with the indicated compounds for 1.5 or 4 hrs. Western blotting analysis was used to determine the activation status of Stat3, Stat1 and pS6K (as a marker of mTORC1 activity). GLUT1/3 inhibitors downregulate phosphorylation of STAT1 and STAT3, key signaling molecules in activated T cells. In FIG. 8A. CD4 T cells were activated for 48 hrs in the presence of IL-1β, TGF-β and 1 μM of the Example 2 compound. Western blotting analysis was used to determine the activation status of Stat3, Stat1 and pS6K (as a marker of mTORC1 activity) and the expression of GLUT1 protein. CD4 T cells were activated for 48 hrs and treated with the indicated compounds in FIG. 8B for 1.5 or 4 hrs. […] IL-17 levels were measured by ELISA (R&D systems, Human IL-17 Quantikine ELISA kit). Proliferation was measured by Cell Titer Glo (Promega). Intracellular staining was performed and analyzed using the Guava EasyCyte flow cytometer. […] Protein levels and phosphorylation status were assessed by western blot analysis using antibodies purchased from Cell Signaling.

[2] = test system: MOG-induced experimental autoimmune encephalitis; test: mouse MOG-induced experimental autoimmune encephalitis (EAE) model; assay type: in vivo; conditions: compared to vehicle control
Source text: In FIG. 4, Example 2 is shown to have efficacy against an in vivo mouse model of inflammation, MOG-induced experimental autoimmune encephalitis. Example 2 both delays the onset and lowers the end clinical score of inflammation in this model.
Mouse Prophylactic MOG-EAE Model: Performed at Hooke laboratories.

GLUT1 = target: T1, GLUT1 (Homo sapiens, UniProt P11166); test: glycolysis assay in DLD1 WT cells (rely on GLUT1); assay type: cell-based; conditions: DLD1-WT cells; 10 μM oligomycin, one hour
T1 construct: endogenous in cells; host or cells: DLD1 WT cancer cells
T1 sequence (P11166 1-492): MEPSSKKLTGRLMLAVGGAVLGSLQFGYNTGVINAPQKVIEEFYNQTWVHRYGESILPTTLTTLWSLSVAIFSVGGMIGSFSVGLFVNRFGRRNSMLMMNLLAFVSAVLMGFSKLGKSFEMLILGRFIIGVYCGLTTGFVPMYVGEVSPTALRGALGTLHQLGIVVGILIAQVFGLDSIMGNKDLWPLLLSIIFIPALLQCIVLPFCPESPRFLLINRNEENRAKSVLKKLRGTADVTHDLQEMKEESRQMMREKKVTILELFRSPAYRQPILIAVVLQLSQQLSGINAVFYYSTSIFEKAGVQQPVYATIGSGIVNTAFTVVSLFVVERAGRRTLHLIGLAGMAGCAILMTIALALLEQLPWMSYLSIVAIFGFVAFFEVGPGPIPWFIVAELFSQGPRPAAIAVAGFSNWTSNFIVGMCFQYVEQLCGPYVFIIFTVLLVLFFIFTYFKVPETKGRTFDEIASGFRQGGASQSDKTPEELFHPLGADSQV
Procedure, shortened: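 Cells […] exposed for 1 h to inhibitor plus 10 μM oligomycin to block mitochondrial ATP; remaining glycolytic ATP read by CellTiter-Glo luminescence. IC50 derived from dose-response curves.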

THP1 monocytes = test: glycolysis assay in LPS-activated THP1 monocytes; assay type: cell-based; conditions: 1 μg/ml LPS 16 hrs, then one-hour glycolysis assay with oligomycin
Method: In FIG. 5A, THP1 cells were activated with 1 μg/ml LPS for 16 hrs prior to a one-hour glycolysis assay (Example 2+Oligomycin). In FIG. 5B, THP1 cells were treated with Example 2 one hour prior to a 16 hour treatment with 1 μg/ml LPS, after which MCP-1 secretion into the media was measured by ELISA (R&D systems) and cell number measured by Cell Titer Glo (Promega).
THP1 Monocyte assay: THP1 monocytic cancer cells were activated with 1 ug/ml LPS (Sigma-Aldrich). The previously described glycolysis assay was performed 16 hrs post-activation. For cytokine secretion, cells were pre-treated for one hour with GLUT inhibitors prior to 16 hours of 1 μg/ml LPS treatment.

SMILES: CCOc1ccc2nc(-c3cccc(OCC(=O)NC(C)C)c3)nc(Nc3ccc(-c4cn[nH]c4)cc3)c2c1 [Ex. 2, 2-(3-(4-((4-(1H-pyrazol-4-yl)phenyl)amino)-6-ethoxyquinazolin-2-yl)phenoxy)-N-isopropylacetamide]
- phosphorylation of STAT1 and STAT3 [1]: downregulate the phosphorylation of STAT1 and STAT3
- end clinical score ([2]; 30 mg/kg p.o. daily): lowered the end clinical score
- onset of EAE ([2]; 30 mg/kg p.o. daily): delayed onset
- end clinical score ([2]; 100 mg/kg p.o. daily): lowered the end clinical score
- onset of EAE ([2]; 100 mg/kg p.o. daily): delayed onset
- IC50 (GLUT1): 115 nM
- glycolysis in LPS stimulated THP1 monocytes (THP1 monocytes): inhibit glycolysis

Source: patent US11071735B2, “Treatment of inflammatory conditions and autoimmune diseases with glucose uptake inhibitors” (Kadmon Corporation, LLC, priority 2017, dated 2021)
